Assay results taken from patent US9693556B2, “Herbicidal pyridazinone derivatives” (SYNGENTA LIMITED, priority 2011, dated 2017).

Experiments:
Assay type in all cases: in vivo
Solanum nigrum (SOLNI) [1] = assay: Pre-emergence herbicidal glasshouse test on Solanum nigrum; conditions: pre-emergence; 1000 g/h; evaluated after 13 days
How it was run: (§1)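 Steps: sow seeds in standard soil; cultivate 1 d (pre-) or 8 d (post-emergence) at 24/16 °C, 14 h light, 65% humidity; spray 1000 g/h in acetone/water plus Tween 20; grow on, watering twice daily; score percentage damage after 13 d.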

[2] = tested on: Ipomoea hederacea (IPOHE); assay: Pre-emergence herbicidal glasshouse test on Ipomoea hederacea; conditions: pre-emergence; 1000 g/h; evaluated after 13 days
How it was run: as §1

[3] = tested on: Alopecurus myosuroides (ALOMY); assay: Pre-emergence herbicidal glasshouse test on Alopecurus myosuroides; conditions: pre-emergence; 1000 g/h; evaluated after 13 days
How it was run: as §1

[4] = tested on: Alopecurus myosuroides (ALOMY); assay: Post-emergence herbicidal glasshouse test on Alopecurus myosuroides; conditions: post-emergence; 1000 g/h; evaluated after 13 days
How it was run: as §1

Setaria faberi (SETFA) [5] = assay: Pre-emergence herbicidal glasshouse test on Setaria faberi; conditions: pre-emergence; 1000 g/h; evaluated after 13 days
How it was run: as §1

[6] = tested on: Amaranthus retoflexus (AMARE); assay: Post-emergence herbicidal glasshouse test on Amaranthus retoflexus; conditions: post-emergence; 1000 g/h; evaluated after 13 days
How it was run: as §1

Solanum nigrum (SOLNI) [7] = assay: Post-emergence herbicidal glasshouse test on Solanum nigrum; conditions: post-emergence; 1000 g/h; evaluated after 13 days
How it was run: as §1

[8] = tested on: Ipomoea hederacea (IPOHE); assay: Post-emergence herbicidal glasshouse test on Ipomoea hederacea; conditions: post-emergence; 1000 g/h; evaluated after 13 days
How it was run: as §1

[9] = tested on: Echinochloa crus-galli (ECHCG); assay: Pre-emergence herbicidal glasshouse test on Echinochloa crus-galli; conditions: pre-emergence; 1000 g/h; evaluated after 13 days
How it was run: as §1

[10] = tested on: Echinochloa crus-galli (ECHCG); assay: Post-emergence herbicidal glasshouse test on Echinochloa crus-galli; conditions: post-emergence; 1000 g/h; evaluated after 13 days
How it was run: as §1

Setaria faberi (SETFA) [11] = assay: Post-emergence herbicidal glasshouse test on Setaria faberi; conditions: post-emergence; 1000 g/h; evaluated after 13 days
How it was run: as §1

[12] = tested on: Amaranthus retoflexus (AMARE); assay: Pre-emergence herbicidal glasshouse test on Amaranthus retoflexus; conditions: pre-emergence; 1000 g/h; evaluated after 13 days
How it was run: as §1

SMILES	PRE Application SOLNI herbicidal damage (five point scale) (Solanum nigrum (SOLNI) [1])	PRE Application IPOHE herbicidal damage (five point scale) [2]	PRE Application ALOMY herbicidal damage (five point scale) [3]	POST Application ALOMY herbicidal damage (five point scale) [4]	PRE Application SETFA herbicidal damage (five point scale) (Setaria faberi (SETFA) [5])	POST Application AMARE herbicidal damage (five point scale) [6]	POST Application SOLNI herbicidal damage (five point scale) (Solanum nigrum (SOLNI) [7])	POST Application IPOHE herbicidal damage (five point scale) [8]	PRE Application ECHCG herbicidal damage (five point scale) [9]	POST Application ECHCG herbicidal damage (five point scale) [10]	POST Application SETFA herbicidal damage (five point scale) (Setaria faberi (SETFA) [11])	PRE Application AMARE herbicidal damage (five point scale) [12]
Cn1ncc(-c2ccc(OCC(F)(F)F)cc2S(C)(=O)=O)c(O)c1=O [Compound 2.030]	5 (5=80-100% damage)	4 (4=60-79% damage)	5 (5=80-100% damage)	5 (5=80-100% damage)	5 (5=80-100% damage)	5 (5=80-100% damage)	5 (5=80-100% damage)	5 (5=80-100% damage)	5 (5=80-100% damage)	5 (5=80-100% damage)	5 (5=80-100% damage)	5 (5=80-100% damage)
Cc1ccc(-c2cnn(C)c(=O)c2O)c(S(C)(=O)=O)c1 [Compound 2.031]	5 (5=80-100% damage)	3 (3=40-59% damage)	4 (4=60-79% damage)	4 (4=60-79% damage)	5 (5=80-100% damage)	5 (5=80-100% damage)	5 (5=80-100% damage)	5 (5=80-100% damage)	5 (5=80-100% damage)	5 (5=80-100% damage)	5 (5=80-100% damage)	5 (5=80-100% damage)
Cn1ncc(-c2ccc([N+](=O)[O-])cc2S(C)(=O)=O)c(O)c1=O [Compound 2.032]	5 (5=80-100% damage)	3 (3=40-59% damage)	2 (2=20-39% damage)	3 (3=40-59% damage)	2 (2=20-39% damage)	5 (5=80-100% damage)	5 (5=80-100% damage)	5 (5=80-100% damage)	5 (5=80-100% damage)	5 (5=80-100% damage)	4 (4=60-79% damage)	5 (5=80-100% damage)
Cn1ncc(-c2ccc(-c3ccccc3)cc2S(C)(=O)=O)c(O)c1=O [Compound 2.033]	5 (5=80-100% damage)	1 (1=0-19% damage)	4 (4=60-79% damage)	5 (5=80-100% damage)	2 (2=20-39% damage)	5 (5=80-100% damage)	5 (5=80-100% damage)	5 (5=80-100% damage)	4 (4=60-79% damage)	5 (5=80-100% damage)	3 (3=40-59% damage)	5 (5=80-100% damage)
Cn1ncc(-c2ccc(SCc3ccccc3)cc2S(C)(=O)=O)c(O)c1=O [Compound 2.035]	5 (5=80-100% damage)	3 (3=40-59% damage)	3 (3=40-59% damage)	4 (4=60-79% damage)	2 (2=20-39% damage)	5 (5=80-100% damage)	5 (5=80-100% damage)	5 (5=80-100% damage)	3 (3=40-59% damage)	5 (5=80-100% damage)	5 (5=80-100% damage)	5 (5=80-100% damage)
Cn1ncc(-c2ccc(S(=O)(=O)Cc3ccccc3)cc2S(C)(=O)=O)c(O)c1=O [Compound 2.036]	5 (5=80-100% damage)	5 (5=80-100% damage)	5 (5=80-100% damage)	5 (5=80-100% damage)	5 (5=80-100% damage)	5 (5=80-100% damage)	5 (5=80-100% damage)	5 (5=80-100% damage)	5 (5=80-100% damage)	5 (5=80-100% damage)	5 (5=80-100% damage)	5 (5=80-100% damage)
Cn1ncc(-c2ccc(S(=O)(=O)N3CCOCC3)cc2S(C)(=O)=O)c(O)c1=O [Compound 2.037]	5 (5=80-100% damage)	4 (4=60-79% damage)	3 (3=40-59% damage)	3 (3=40-59% damage)	2 (2=20-39% damage)	5 (5=80-100% damage)	5 (5=80-100% damage)	5 (5=80-100% damage)	5 (5=80-100% damage)	5 (5=80-100% damage)	4 (4=60-79% damage)	5 (5=80-100% damage)
CC(C)N(C)S(=O)(=O)c1ccc(-c2cnn(C)c(=O)c2O)c(S(C)(=O)=O)c1 [Compound 2.038]	5 (5=80-100% damage)	4 (4=60-79% damage)	5 (5=80-100% damage)	4 (4=60-79% damage)	4 (4=60-79% damage)	5 (5=80-100% damage)	5 (5=80-100% damage)	4 (4=60-79% damage)	5 (5=80-100% damage)	5 (5=80-100% damage)	5 (5=80-100% damage)	5 (5=80-100% damage)
Cn1nc(N)c(-c2ccc(C(F)(F)F)cc2S(C)(=O)=O)c(O)c1=O [Compound 2.039]	5 (5=80-100% damage)	5 (5=80-100% damage)	5 (5=80-100% damage)	5 (5=80-100% damage)	5 (5=80-100% damage)	5 (5=80-100% damage)	5 (5=80-100% damage)	5 (5=80-100% damage)	5 (5=80-100% damage)	5 (5=80-100% damage)	5 (5=80-100% damage)	5 (5=80-100% damage)
